According to ChEMBL document CHEMBL3885881, “DrugMatrix”:

Organism: Rattus norvegicus
Experiment: DrugMatrix - Regimen: Daily Repeat
Format: toxicity, organism-based, Sprague-Dawley
Parameters: regimen Daily Repeat, gender Male, age 6-8 weeks
Details: in vivo, po, route oral GAVAGE, vehicle 100 % WATER; for ABSOLUTE BASOPHIL / ABSOLUTE EOSINOPHIL / ABSOLUTE LYMPHOCYTE / ABSOLUTE MONOCYTE / ABSOLUTE SEGMENTED NEUTROPHIL / BASOPHIL / EOSINOPHIL / ERYTHROCYTE COUNT / HEMATOCRIT / HEMOGLOBIN / LEUKOCYTE COUNT / LYMPHOCYTE / MEAN CORPUSCULAR HEMOGLOBIN / MEAN CORPUSCULAR HEMOGLOBIN CONCENTRATION / MEAN CORPUSCULAR VOLUME / MONOCYTE / NEUTROPHIL / NUCLEATED RED BLOOD CELLS / PLATELET COUNT: tissue Blood; for ALANINE AMINOTRANSFERASE / ALBUMIN / ALKALINE PHOSPHATASE / ASPARTATE AMINOTRANSFERASE / BLOOD UREA NITROGEN / CARBON DIOXIDE / CHLORIDE / CHOLESTEROL / CREATINE PHOSPHOKINASE / CREATININE / GLUCOSE / LACTATE DEHYDROGENASE / LIPASE / PHOSPHORUS / POTASSIUM / SODIUM / TOTAL BILIRUBIN / TOTAL PROTEIN / URIC ACID: tissue Plasma
[1] = 0 mg/kg, 72 h, dose level Control, time 3 day
[2] = 0 mg/kg, 120 h, dose level Control, time 5 day
[3] = 25 mg/kg, 72 h, dose level Low, time 3 day
[4] = 25 mg/kg, 120 h, dose level Low, time 5 day

CCC1(c2ccccc2)C(=O)NC(=O)NC1=O [PHENOBARBITAL]
ABSOLUTE BASOPHIL [1]: 0 CELLS/uL
ABSOLUTE EOSINOPHIL [1]: 32.5 CELLS/uL
ABSOLUTE LYMPHOCYTE [1]: 9305.83 CELLS/uL
ABSOLUTE MONOCYTE [1]: 43.83 CELLS/uL
ABSOLUTE SEGMENTED NEUTROPHIL [1]: 817.83 CELLS/uL
BASOPHIL [1]: 0%
EOSINOPHIL [1]: 0.33%
ERYTHROCYTE COUNT [1]: 5.38 x10E6/uL
HEMATOCRIT [1]: 33.63%
HEMOGLOBIN [1]: 13.17 G/DL
LEUKOCYTE COUNT [1]: 10.2 x10E3/uL
LYMPHOCYTE [1]: 91.17%
MEAN CORPUSCULAR HEMOGLOBIN [1]: 24.5 pg
MEAN CORPUSCULAR HEMOGLOBIN CONCENTRATION [1]: 39.13 G/DL
MEAN CORPUSCULAR VOLUME [1]: 62.53 fL
MONOCYTE [1]: 0.5%
NEUTROPHIL [1]: 8%
NUCLEATED RED BLOOD CELLS [1]: 0.17 /100WBC
PLATELET COUNT [1]: 858 x10E3/uL
ALANINE AMINOTRANSFERASE [1]: 55.67 u/L
ALBUMIN [1]: 4.07 G/DL
ALKALINE PHOSPHATASE [1]: 337 u/L
ASPARTATE AMINOTRANSFERASE [1]: 84 u/L
BLOOD UREA NITROGEN [1]: 13.17 mg/dL
CARBON DIOXIDE [1]: 34.17 mmol/L
CHLORIDE [1]: 99.33 MEQ/L
CHOLESTEROL [1]: 78.83 mg/dL
CREATINE PHOSPHOKINASE [1]: 576.83 u/L
CREATININE [1]: 0.17 mg/dL
GLUCOSE [1]: 152.67 mg/dL
LACTATE DEHYDROGENASE [1]: 147.83 u/L
LIPASE [1]: 9.5 u/L
PHOSPHORUS [1]: 10.78 mg/dL
POTASSIUM [1]: 6.34 MEQ/L
SODIUM [1]: 144.12 MEQ/L
TOTAL BILIRUBIN [1]: 0.18 mg/dL
TOTAL PROTEIN [1]: 6.08 G/DL
URIC ACID [1]: 0.65 mg/dL
ABSOLUTE BASOPHIL [2]: 0 CELLS/uL
ABSOLUTE EOSINOPHIL [2]: 31.17 CELLS/uL
ABSOLUTE LYMPHOCYTE [2]: 7918.33 CELLS/uL
ABSOLUTE MONOCYTE [2]: 58.33 CELLS/uL
ABSOLUTE SEGMENTED NEUTROPHIL [2]: 725.5 CELLS/uL
BASOPHIL [2]: 0%
EOSINOPHIL [2]: 0.33%
ERYTHROCYTE COUNT [2]: 5.32 x10E6/uL
HEMATOCRIT [2]: 33.53%
HEMOGLOBIN [2]: 13.17 G/DL
LEUKOCYTE COUNT [2]: 8.73 x10E3/uL
LYMPHOCYTE [2]: 90.33%
MEAN CORPUSCULAR HEMOGLOBIN [2]: 24.82 pg
MEAN CORPUSCULAR HEMOGLOBIN CONCENTRATION [2]: 39.33 G/DL
MEAN CORPUSCULAR VOLUME [2]: 63.12 fL
MONOCYTE [2]: 0.67%
NEUTROPHIL [2]: 8.67%
NUCLEATED RED BLOOD CELLS [2]: 0 /100WBC
PLATELET COUNT [2]: 1144.83 x10E3/uL
ALANINE AMINOTRANSFERASE [2]: 60.5 u/L
ALBUMIN [2]: 3.97 G/DL
ALKALINE PHOSPHATASE [2]: 343.17 u/L
ASPARTATE AMINOTRANSFERASE [2]: 80.83 u/L
BLOOD UREA NITROGEN [2]: 15 mg/dL
CARBON DIOXIDE [2]: 31 mmol/L
CHLORIDE [2]: 99.75 MEQ/L
CHOLESTEROL [2]: 71.5 mg/dL
CREATINE PHOSPHOKINASE [2]: 237.17 u/L
CREATININE [2]: 0.17 mg/dL
GLUCOSE [2]: 137 mg/dL
LACTATE DEHYDROGENASE [2]: 146.17 u/L
LIPASE [2]: 11.5 u/L
PHOSPHORUS [2]: 10.13 mg/dL
POTASSIUM [2]: 6 MEQ/L
SODIUM [2]: 145 MEQ/L
TOTAL BILIRUBIN [2]: 0.13 mg/dL
TOTAL PROTEIN [2]: 5.82 G/DL
URIC ACID [2]: 0.62 mg/dL
ABSOLUTE BASOPHIL [3]: 0 CELLS/uL
ABSOLUTE EOSINOPHIL [3]: 0 CELLS/uL
ABSOLUTE LYMPHOCYTE [3]: 9305.33 CELLS/uL
ABSOLUTE MONOCYTE [3]: 110 CELLS/uL
ABSOLUTE SEGMENTED NEUTROPHIL [3]: 784.67 CELLS/uL
BASOPHIL [3]: 0%
EOSINOPHIL [3]: 0%
ERYTHROCYTE COUNT [3]: 5.23 x10E6/uL
HEMATOCRIT [3]: 33.43%
HEMOGLOBIN [3]: 13.03 G/DL
LEUKOCYTE COUNT [3]: 10.2 x10E3/uL
LYMPHOCYTE [3]: 92.33%
MEAN CORPUSCULAR HEMOGLOBIN [3]: 24.97 pg
MEAN CORPUSCULAR HEMOGLOBIN CONCENTRATION [3]: 39 G/DL
MEAN CORPUSCULAR VOLUME [3]: 63.97 fL
MONOCYTE [3]: 0.67%
NEUTROPHIL [3]: 7%
NUCLEATED RED BLOOD CELLS [3]: 0 /100WBC
PLATELET COUNT [3]: 972.33 x10E3/uL
ALANINE AMINOTRANSFERASE [3]: 52.33 u/L
ALBUMIN [3]: 4 G/DL
ALKALINE PHOSPHATASE [3]: 326.67 u/L
ASPARTATE AMINOTRANSFERASE [3]: 74.67 u/L
BLOOD UREA NITROGEN [3]: 12 mg/dL
CARBON DIOXIDE [3]: 35 mmol/L
CHLORIDE [3]: 97.5 MEQ/L
CHOLESTEROL [3]: 87.67 mg/dL
CREATINE PHOSPHOKINASE [3]: 212 u/L
CREATININE [3]: 0.15 mg/dL
GLUCOSE [3]: 146.33 mg/dL
LACTATE DEHYDROGENASE [3]: 153.33 u/L
LIPASE [3]: 12 u/L
PHOSPHORUS [3]: 11.73 mg/dL
POTASSIUM [3]: 6.16 MEQ/L
SODIUM [3]: 143.95 MEQ/L
TOTAL BILIRUBIN [3]: 0.2 mg/dL
TOTAL PROTEIN [3]: 5.83 G/DL
URIC ACID [3]: 0.83 mg/dL
ABSOLUTE BASOPHIL [4]: 0 CELLS/uL
ABSOLUTE EOSINOPHIL [4]: 0 CELLS/uL
ABSOLUTE LYMPHOCYTE [4]: 5785.67 CELLS/uL
ABSOLUTE MONOCYTE [4]: 18.33 CELLS/uL
ABSOLUTE SEGMENTED NEUTROPHIL [4]: 262.67 CELLS/uL
BASOPHIL [4]: 0%
EOSINOPHIL [4]: 0%
ERYTHROCYTE COUNT [4]: 5.55 x10E6/uL
HEMATOCRIT [4]: 34.67%
HEMOGLOBIN [4]: 13.1 G/DL
LEUKOCYTE COUNT [4]: 6.07 x10E3/uL
LYMPHOCYTE [4]: 94.33%
MEAN CORPUSCULAR HEMOGLOBIN [4]: 23.57 pg
MEAN CORPUSCULAR HEMOGLOBIN CONCENTRATION [4]: 37.77 G/DL
MEAN CORPUSCULAR VOLUME [4]: 62.47 fL
MONOCYTE [4]: 0.33%
NEUTROPHIL [4]: 5.33%
NUCLEATED RED BLOOD CELLS [4]: 0 /100WBC
PLATELET COUNT [4]: 1109.67 x10E3/uL
ALANINE AMINOTRANSFERASE [4]: 55.33 u/L
ALBUMIN [4]: 4.13 G/DL
ALKALINE PHOSPHATASE [4]: 380.67 u/L
ASPARTATE AMINOTRANSFERASE [4]: 85 u/L
BLOOD UREA NITROGEN [4]: 17.67 mg/dL
CARBON DIOXIDE [4]: 32.67 mmol/L
CHLORIDE [4]: 100 MEQ/L
CHOLESTEROL [4]: 89.67 mg/dL
CREATINE PHOSPHOKINASE [4]: 357 u/L
